Laboratory results from patent US12622966B2, “Compound for photothermal cancer therapy, composition including the same, and method for photothermal cancer therapy” (PUKYONG NATIONAL UNIVERSITY INDUSTRY-UNIVERSITY COOPERATION …, priority 2022, dated 2026).

Key:
[1] = Photothermal conversion efficiency; format: physicochemical; parameters: η (THF), photothermal conversion efficiency: concentration or dose not given beside the values; details: for η (DMSO), photothermal conversion efficiency: in DMSO; for η (THF), photothermal conversion efficiency: in THF; for η (NPs), photothermal conversion efficiency: nanoparticles (nanoaggregates)
Experimental: FIGS. 3A, 3B, and 3C relate to the thermal reaction of NI2 NPs according to 691 nm laser irradiation at 1 W/cm^2 and 1.5 W/cm^2 according to an embodiment of the present disclosure. FIG. 3A illustrates temperature rise measured in NI2 NPs at various concentrations (0 for distilled water, 25, 50, 75, and 100 μM) after irradiation for 150 seconds (N=4); FIG. 3B illustrates photothermal convergence efficiency (PCE) of NI2 NPs (100 μM) in 4 ON/OFF cycles of laser irradiation (ON/OFF time=150 s/450 s; duty cycle=25%); and FIG. 3C illustrates infrared thermal images of NI2 NPs (100 μM) captured at various irradiation times (scale bar=5 mm);
FIGS. 3A, 3B and 3C show quantitative analysis results of the photothermal characteristics and photothermal conversion efficiency of NI2 nanoparticles according to various concentrations and laser irradiation times in a 691 nm laser (1 W/cm^2 and 1.5 W/cm^2) irradiation of NI2 nanoparticles. When the concentration of the NI2 solution (in D.W.) was changed from 0 to 100 μM, it could be seen that the temperature increased in proportion to the concentration when the temperature change of the NI2 solution was measured after absorption for 150 seconds. That is, in FIG. 3A, it may be seen that a temperature increase (ΔT) changes linearly after irradiation for 150 seconds (R^2=0.98 to 0.99), and the maximum temperature of the NI2 NP was 42.8±2.8° C. and 54.4±0.5° C. for 1 W/cm^2 and 1.5 W/cm^2 at 100 μM, respectively. […] In FIG. 3C, it may be seen in the captured sequential thermal images showing the “spatio-temporal distribution” in the temperature area.

[2] = UV-Vis absorption in DMSO; format: physicochemical; details: for λabs, absorption wavelength: in DMSO
Experimental: FIG. 2 illustrates UV-Vis absorption (solid line) and fluorescence emission (dotted line) spectra of NI1 (60 μM) and NI2 (40 μM) in DMSO according to an embodiment of the present disclosure;
In the UV-Vis spectrum of FIG. 2 and Table 1, an absorption peak of NI1 has a tendency of red-shift absorption (λabs=728 nm, in DMSO) compared to NI2 (λabs=690 nm, in DMSO) in an organic solvent. […] The molar absorption coefficient (8) of NI1 is relatively lower than that of NI2, which generates a conjugate in a free pair of electrons of an —NH group due to the introduction of a phenyl group in NI2 and may reduce an ICT effect from an electron donor group to an electron acceptor group compared to NI1.

Compound	η (DMSO), photothermal conversion efficiency [1] [%]	η (THF), photothermal conversion efficiency [1] [%]	η (NPs), photothermal conversion efficiency [1] [%]	ε, molar absorption coefficient [2]	λabs, absorption wavelength [2] [nm]
CNc1ccc(N=C2C(=C(C#N)C#N)c3ccccc3C2=C(C#N)C#N)cc1 [NI1]	50.3	31.4	58.3	12.0 ×10^3	728
N#CC(C#N)=C1C(=Nc2ccc(Nc3ccccc3)cc2)C(=C(C#N)C#N)c2ccccc21 [NI2]	52.1	32.4	92.5	15.6 ×10^3	690
